Drawing on PubChem BioAssay AID1959 (Broad Institute, 2009), this text covers EC50 for 87 compounds.

Calls of active or inactive are those of the source.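 How the source made its calls: active means growth-inhibition EC50 no more than tenfold above the top tested dose; inconclusive means flat fit between 30% and 70% inhibition, or unreliable fit; inactive means EC50 more than tenfold above the top tested dose.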

The test system of this experiment is E. coli NEB5alpha growth, BacTiter-Glo luminescence, 4 h. The experiment can be described thus: antibacterial activity against E. coli NEB5alpha – luminescence, counter-screen for MEX-5/POS-1 RNA-binding inhibitor project, dose response (AID 1959).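 Further: pUC19-transformed ampicillin-resistant cells grown in LB with ampicillin.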 On the technique in general: A counterscreen serves to expose hits that act by an unwanted route or on another target.
The term EC50 denotes the midpoint of the concentration-response curve. In the case of `CC(=Nc1ccc(Br)cc1)c1sc2ccccc2c1O`, the EC50 was > 11 µM (inactive).
Consider `COc1cc(/C=C2\C(=O)NN(c3ccccc3)C2=O)cc([N+](=O)[O-])c1O`, for which the EC50 is > 11 µM (inactive).
To `O=C1CNC(=S)N1CCc1ccc(O)c(O)c1` belongs > 11 µM (inactive); to `Cc1cc(C)c2c(c1)NC(c1cc3c(cc1Br)OCO3)C1CC=CC21` (configuration not stated), > 11 µM (inactive); to `C/C(N)=C(/C#N)C(=O)CSc1ncnc2ccccc12`, > 11 µM (inactive).
To `O=C(Nc1nccs1)c1ccc(-c2ccc([N+](=O)[O-])cc2)o1` belongs > 11 µM (inactive); to `COC(=O)CCCC1=CC2=CC(=O)C(C)(OC(=O)C3CCCC3)C(=O)C2=CO1` (configuration not stated), > 11 µM (inactive); to `Cc1ccc(/C(O)=C/c2nc3ccccc3oc2=O)cc1`, > 11 µM (inactive).
Turning to `O=C(CC1Nc2ccccc2NC1=O)Nc1cc(Cl)cc(Cl)c1` (configuration not stated), the EC50 was > 11 µM (inactive).
To `COc1cc(/C=C2/N=C(c3ccccc3)OC2=O)c(F)cc1OCc1ccccc1` belongs > 11 µM (inactive); to `CCN(CC)Cc1cc(O)c(CN(CC)CC)cc1O`, > 11 µM (inactive).
As for `CCCn1nc(C(=O)Nc2ccc3nc(C)sc3c2)c2ccccc2c1=O`, the figure is > 11 µM (inactive); as for `C=CCN1C(=O)NC(=O)/C(=C/c2c(CCN(C)C(=O)c3ccccc3)cc3c(c2OC)OCO3)C1=O`, > 11 µM (inactive); as for `CCOC(=O)N1CCN(C(=O)c2ccc3c(c2)NC(=O)/C(=C\c2ccc(OC)c(OC)c2)S3)CC1`, > 11 µM (inactive).
Take `Cc1nn(-c2ccccc2)c(N2CCCC2)c1/C=N/NC(=O)c1cc(-c2cccnc2)nc2ccccc12`: the EC50 was > 11 µM (inactive).
To `COc1ccc(C2c3ccc(O)cc3Oc3ncn(Cc4ccco4)c(=N)c32)cc1OC` (configuration not stated) belongs > 11 µM (inactive).
As to `CCN(CC)c1ccc2cc(NC(=O)CCC(=O)O)c(=O)oc2c1`, the EC50 is > 11 µM (inactive).
As for `CNc1ccc2nc3ccccc3[n+](C)c2c1`, the figure is > 11 µM (inactive); as for `Cc1ccc(N/C=C/C(=O)c2sc(-c3ccccc3)nc2C)cc1`, > 11 µM (inactive).
For `CCOC(=O)C1Nc2c(F)cc(C)cc2C2C=CCC12` (configuration not stated), the EC50 is > 11 µM (inactive).
To `COc1cc2c(cc1/C=C1/NC(=O)N(c3ccccc3)C1=O)OCO2` belongs > 11 µM (inactive); to `CC1=Nc2ccccc2/C1=C\c1nc(-c2ccc(F)cc2)oc1O`, > 11 µM (inactive).
As for `Oc1ccc(O)c(-c2cnns2)c1`, the figure is > 11 µM (inactive); as for `O=c1[nH]c(=S)[nH]c2c1C(c1ccc(Br)cc1)c1c([nH]c(=S)[nH]c1=O)O2`, > 11 µM (inactive); as for `Cc1[nH][nH]c(=O)c1/C=N/N1CCOCC1`, > 11 µM (inactive).
To `c1ccc(-c2nnc(-c3ccccn3)nn2)nc1` belongs > 11 µM (inactive).
As to `COC(=O)c1ccccc1-n1c(CCC(=O)O)ccc1-c1ccc(F)cc1`, the EC50 was > 11 µM (inactive).
To `Cc1cccc(N(C)S(=O)(=O)c2nnc(NC(=O)c3ccco3)s2)c1` belongs > 11 µM (inactive); to `O=C(NNc1ccccc1)C(=O)NNS(=O)(=O)c1ccc([N+](=O)[O-])cc1`, > 11 µM (inactive); to `COc1ccccc1-c1cnn2c(NCc3ccccc3)cc(C)nc12`, > 11 µM (inactive).
To `N#CC(C#N)=Cc1ccc(-c2ccccc2)o1` belongs > 11 µM (inactive).
Consider `CN(C)c1ccc(N=Cc2c(O)n(CCC3=CCCCC3)c(=O)[nH]c2=O)cc1`, for which the EC50 is > 11 µM (inactive).
To `CCOc1cc(/C=C2\SC(=Nc3ccc(CC)cc3)NC2=O)ccc1OCC(=O)O` belongs > 11 µM (inactive).
To `Cn1c(C(=O)NCCCN2CCOCC2)cc2c(=O)n(C)c3ccccc3c21` belongs > 11 µM (inactive); to `COc1ccc(C(=O)Nc2cc(C(C)=O)c(/C=C/N(C)C)oc2=O)cc1`, > 11 µM (inactive); to `COCCN1CCC(CNCc2c(C(=O)N3CCCCC3)nc3c(C)cccn23)C1` (configuration not stated), > 11 µM (inactive).
On to `CC1(OC(=O)c2cccs2)C(=O)C=C2C=C3CCCN3C=C2C1=O` (configuration not stated), for which the EC50 was > 11 µM (inactive).
As for `CC(/C=C1\N=C(SCc2ccccc2Cl)SC1=O)=C\c1ccccc1`, the figure is > 11 µM (inactive); as for `O=C1NC(=S)N(c2ccc(F)cc2)C(=O)/C1=C/c1ccco1`, > 11 µM (inactive).
As for `Cc1cc2c3c(c1)C1(C(=O)N3C(C)(C)CC2C)C(C#N)=C(N)OC2=C1C(=O)CC(C)(C)C2` (configuration not stated), the figure is > 11 µM (inactive).
To `Cc1ccc2[nH]c(O)c(N=Nc3ccccc3C)c2c1` belongs > 11 µM (inactive); to `CCCCn1c(O)c(/C=N/NC(=O)c2ccncc2)c(=O)[nH]c1=O`, > 11 µM (inactive).
`CCC(=O)OC1(C)C(=O)C=C2C=C(c3ccc(C#N)cc3)OC=C2C1=O` (configuration not stated): the EC50 was > 11 µM (inactive).
To `COc1ccc(CC(=O)NNC2=Nc3cccc4cccc2c34)cc1` belongs > 11 µM (inactive); to `CCN(CC)c1ccc(C=C2C(=O)OC(C)(C(C)(C)C)OC2=O)cc1` (configuration not stated), > 11 µM (inactive); to `COc1ccc(/C=C/c2cc(C(F)(F)F)[nH]c(=O)n2)cc1OC`, > 11 µM (inactive).
Take `CC(=O)NC1=NC(=O)/C(=C/c2cc(C)n(-c3cccc(C(=O)O)c3)c2C)S1`: the EC50 was > 11 µM (inactive).
To `Cc1cc(/C=C2\C(=O)NC(=O)N(c3cccc(F)c3)C2=O)c(C)n1-c1ccc(C(=O)O)c(Cl)c1` belongs > 11 µM (inactive).
As for `NC(N)=NS(=O)(=O)c1ccc(NC(=S)NC(=O)/C=C/c2cccs2)cc1`, the figure is > 11 µM (inactive); as for `COc1cc(/C=C2\CCc3c2nc2ccccc2c3C(=O)O)cc(OC)c1OC`, > 11 µM (inactive).
As for `CCCCCCn1c(O)c(C=NCCCn2ccnc2)c(=O)[nH]c1=O`, the figure is > 11 µM (inactive); as for `c1ccc2oc(CCc3nc4ccccc4o3)nc2c1`, > 11 µM (inactive).
As for `CC1N(C)c2cccc3cccc(c23)N1C`, the EC50 was > 11 µM (inactive).
In the case of `COc1ccc(/C=C2/N=C(c3cccs3)OC2=O)cc1OC(C)C`, the EC50 was > 11 µM (inactive).
With `COc1ccc(/C=c2\sc3nc(-c4ccccc4OC)nn3c2=O)c(OC)c1`, the EC50 is > 11 µM (inactive).
To `O=C(CN1CCC(n2nnc3cc(F)ccc32)CC1)NCCc1ccccc1` belongs > 11 µM (inactive); to `Cn1c(=O)cc2c3c(c(N4CCCCC4)ccc31)C(=O)c1ccccc1-2`, > 11 µM (inactive).
As for `O=C(O)CCc1ccc(-c2cccs2)n1-c1ccc(C(=O)O)cc1`, the figure is > 11 µM (inactive).
As for `CSCC(C)N1CCC(N2CCC(C(=O)NCc3ccccn3)CC2)CC1` (configuration not stated), the figure is > 11 µM (inactive); as for `COc1ccc(/C=c2\sc3nc(=O)c(C)nn3c2=O)c(OC)c1`, > 11 µM (inactive).
Regarding `Cc1sc(-c2ccccn2)nc1OC(=O)c1cccc(Cl)c1Cl`, the EC50 was > 11 µM (inactive).
Turning to `Cc1ccc(NC(=O)CSc2nccc(=O)[nH]2)c(S(=O)(=O)N2CCOCC2)c1`, the EC50 is > 11 µM (inactive).
As for `CCN(CC)C(=O)CSc1nnc2nnc3cc(OC)ccc3n12`, the figure is > 11 µM (inactive); as for `Cc1c(N)cc(N)cc1C(=O)O`, > 11 µM (inactive); as for `O=c1[nH]c(=O)n(-c2ccc(F)cc2)c(O)c1C=Nc1ccccc1N1CCCC1`, > 11 µM (inactive).
For the compound `Oc1ccc(/C=N/Nc2ncnc3nc[nH]c23)cc1`, the EC50 was > 11 µM (inactive).
As for `CC1=NN(C(N)=S)C(=O)C1N=Nc1c(Cl)cc([N+](=O)[O-])cc1Cl` (configuration not stated), the figure is > 11 µM (inactive); as for `Cc1cc(C)cc(-n2c(O)c(C=Nc3ccc(N4CCOCC4)cc3)c(=O)[nH]c2=S)c1`, > 11 µM (inactive); as for `CC(C)(C)c1ccc(/C=C2\Oc3cc(O)ccc3C2=O)cc1`, > 11 µM (inactive).
As for `CCOC(=O)Cc1csc(NC(=O)c2sc3nc4cc(C)ccc4cc3c2N)n1`, the figure is > 11 µM (inactive); as for `N#CC(C#N)=Cc1ccc(-c2ccc(S(=O)(=O)N=C(N)N)cc2)o1`, > 11 µM (inactive); as for `O=C(O)CCN1C(=O)/C(=C/c2ccc(-c3nc4ccccc4s3)o2)SC1=S`, > 11 µM (inactive).
As for `COc1ccc(P2(=O)Nc3ccccc3N2)cc1`, the figure is > 11 µM (inactive); as for `Cc1ccc(CN2C(=O)N/C(=C\c3cccn3-c3cccc(C(=O)O)c3)C2=O)cc1`, > 11 µM (inactive); as for `CCCCOc1ccc(/C=C2/Sc3ccccc3C2=O)cc1`, > 11 µM (inactive).
For `CC(C)(C)OC(=O)NCCCC1=CC2=CC(=O)C(C)(OC(=O)c3ccco3)C(=O)C2=CO1` (configuration not stated), the EC50 is > 11 µM (inactive).
As for `CCCCN(C)C(=O)c1cccc(OC2CCN(CC(C)(C)C)CC2)c1`, the EC50 is > 11 µM (inactive).
As for `Cc1cc(C=O)c(C)n1-c1cc(C(=O)O)cc(C(=O)O)c1`, the figure is > 11 µM (inactive); as for `CSc1nnc(N2C(=O)C(O)=C(C(=O)c3ccco3)C2c2cccc(Cl)c2)s1` (configuration not stated), > 11 µM (inactive).
As for `Clc1cccc(CSc2nc3ccncc3[nH]2)c1`, the figure is > 11 µM (inactive).
To `Cc1ccc(-c2ccc(CCC(=O)O)n2-c2cccc(C(=O)O)c2)cc1` belongs > 11 µM (inactive); to `CCC(=O)Nc1cc(C)c(NC(=O)CCc2ccccc2)cn1`, > 11 µM (inactive).
As for `O=C1C=C(Nc2cccc3cccnc23)c2ccccc2C1=O`, the EC50 is > 11 µM (inactive).
As for `Nc1c(C(=O)c2ccc(Cl)cc2)sc2nsc(SCCN3CCOCC3)c12`, the figure is > 11 µM (inactive); as for `Cc1cc(O)c(C(C)C)cc1N=C1CSC(=O)N1`, > 11 µM (inactive); as for `O=C(CCSc1nc2ccccc2s1)N/N=C/c1c(O)ccc2ccccc12`, > 11 µM (inactive).
As for `N=C1/C(=C\c2ccc(SCc3ccccc3)o2)C(=O)N=C2SC(CC(=O)N3CCOCC3)=NN12`, the figure is > 11 µM (inactive).
